Reference: US6410792B1, “Amide derivatives and methods for using the same as selective neuropeptide Y receptor antagonists” (Bayer Corporation, priority 1997, dated 2002)
pIC50: −log10 of the molar value.

Legend:
[1] = biological target: human Y4/PP1 receptor (Homo sapiens, UniProt P50391); test: Human Y4/PP1 receptor binding assay ([125I]human PP, membrane protein); details: [125I]human PP, membrane protein; read-out: hNPY4 IC50
Outline: (§1)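 Filtration binding with membrane protein and drug dilution, 2 h at room temperature with mixing, radioactivity counted by gamma or scintillation. Y2: 25 pM [125I]PYY in Krebs-Ringer bicarbonate pH 7.4 with 0.01% BSA, nonspecific by 1 μM NPY. Y4/PP1: 50 pM [125I]hPP in HEPES-buffered saline pH 7.4 with protease inhibitors and 0.3% BSA, nonspecific by 1 μM hPP.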

[2] = biological target: T1, Human NPY1 receptor (Homo sapiens, UniProt P25929); test: Human NPY1 receptor binding assay ([125I]PYY, SK-N-MC cells); details: [125I]PYY, SK-N-MC cells; read-out: hNPYI IC50
T1 construct: host or cells: SK-N-MC cells
T1 sequence (P25929 1-384): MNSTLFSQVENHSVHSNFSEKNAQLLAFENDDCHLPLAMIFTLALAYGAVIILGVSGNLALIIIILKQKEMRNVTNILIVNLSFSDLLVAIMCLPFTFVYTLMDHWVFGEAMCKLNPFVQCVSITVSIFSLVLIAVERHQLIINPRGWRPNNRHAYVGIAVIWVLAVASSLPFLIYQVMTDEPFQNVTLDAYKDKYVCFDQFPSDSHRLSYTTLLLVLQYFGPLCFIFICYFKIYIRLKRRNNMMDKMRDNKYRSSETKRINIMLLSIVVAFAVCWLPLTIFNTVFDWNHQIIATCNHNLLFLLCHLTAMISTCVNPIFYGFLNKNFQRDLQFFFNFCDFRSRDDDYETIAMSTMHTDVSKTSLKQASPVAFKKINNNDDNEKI
Outline: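 Whole-cell competition with ~50 pM [125I]PYY on SK-N-MC monolayers, 3 h at room temperature after 30 min preincubation in HEPES-buffered (pH 7.3) serum-free DMEM containing protease inhibitors. Gamma counting of cell lysates; 1 μM NPY gave nonspecific binding.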

[3] = biological target: T2, Rat NPY5 receptor (Rattus norvegicus, UniProt Q63634); test: Rat NPY5 cyclase assay (in vitro functional assay, forskolin-stimulated adenylate cyclase, cAMP); format: cell-based; details: 10 μM, percentage of forskolin-stimulated adenylate cyclase; for activity at 10 µM: 20 min, read-out: rNPY5 % FSAC (10 μM)
T2 sequence (Q63634 1-445): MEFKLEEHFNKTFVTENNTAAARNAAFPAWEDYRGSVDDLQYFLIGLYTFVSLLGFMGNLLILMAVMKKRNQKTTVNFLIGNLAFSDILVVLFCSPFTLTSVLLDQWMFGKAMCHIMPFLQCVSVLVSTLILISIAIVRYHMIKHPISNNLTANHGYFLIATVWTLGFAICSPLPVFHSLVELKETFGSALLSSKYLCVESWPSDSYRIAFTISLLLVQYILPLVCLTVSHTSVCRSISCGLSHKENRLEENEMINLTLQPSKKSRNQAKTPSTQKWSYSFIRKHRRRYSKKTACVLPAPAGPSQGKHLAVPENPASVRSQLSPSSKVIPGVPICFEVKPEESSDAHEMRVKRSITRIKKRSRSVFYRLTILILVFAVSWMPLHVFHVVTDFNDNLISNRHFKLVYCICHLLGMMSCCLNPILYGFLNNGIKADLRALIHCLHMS
Method: D. Rat NYP5 Cyclase Assay (In Vitro Functional Assay)
Cells stably expressing the rat NPY5 receptor are resuspended in serum-free DMEM containing 10 mM HEPES (pH 7.4) and 1 mM isobutylmethylxanthine (IBMX). […] forskolin and drug dilution are then added to the cells. After a 20 minute incubation of the samples at 37° C, the assay is stopped by placing the samples in boiling water for 3 minutes. The cAMP produced in each sample is quantitated with a radioimmunoassay kit (NEN DuPont). Data are expressed as a percentage of forskolin-stimulated adenylate cyclase.

[4] = biological target: T3, Y2 receptor (Homo sapiens, UniProt P49146); test: Y2 receptor binding assay ([125I]PYY, membrane protein); details: [125I]PYY, membrane protein; read-out: hNPY2 IC50
T3 sequence (P49146 1-381): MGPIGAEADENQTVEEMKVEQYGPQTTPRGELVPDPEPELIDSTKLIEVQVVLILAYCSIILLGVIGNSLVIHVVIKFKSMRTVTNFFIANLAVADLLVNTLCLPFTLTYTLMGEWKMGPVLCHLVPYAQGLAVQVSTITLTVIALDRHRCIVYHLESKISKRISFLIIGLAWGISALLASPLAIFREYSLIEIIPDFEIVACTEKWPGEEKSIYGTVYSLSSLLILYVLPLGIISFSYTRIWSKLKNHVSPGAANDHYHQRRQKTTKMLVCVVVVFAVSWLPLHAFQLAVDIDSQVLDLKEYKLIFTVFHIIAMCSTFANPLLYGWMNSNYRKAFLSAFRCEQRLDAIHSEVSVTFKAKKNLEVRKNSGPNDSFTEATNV
Outline: as §1

[5] = biological target: T4, Human NPY5 receptor (Homo sapiens, UniProt Q15761); test: Human NPY5 receptor binding assay ([125I]PYY, membrane protein); details: [125I]PYY, read-out: hNPY5 IC50
T4 sequence (Q15761 1-445): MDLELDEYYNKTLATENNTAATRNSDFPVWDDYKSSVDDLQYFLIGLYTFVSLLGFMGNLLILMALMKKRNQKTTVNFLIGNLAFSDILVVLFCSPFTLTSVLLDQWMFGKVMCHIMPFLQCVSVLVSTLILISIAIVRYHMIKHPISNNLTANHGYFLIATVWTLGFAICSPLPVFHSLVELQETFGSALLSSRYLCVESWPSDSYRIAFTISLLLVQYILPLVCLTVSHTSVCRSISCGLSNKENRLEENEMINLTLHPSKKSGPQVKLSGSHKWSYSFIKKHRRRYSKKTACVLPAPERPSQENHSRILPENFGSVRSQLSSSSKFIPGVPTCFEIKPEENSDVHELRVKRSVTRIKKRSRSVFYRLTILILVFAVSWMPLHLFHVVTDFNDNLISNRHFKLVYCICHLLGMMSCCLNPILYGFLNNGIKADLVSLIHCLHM
Outline: (§2)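 Competition against porcine [125I]PYY (75-100 pM) on receptor membranes, 2 h, room temperature, Tris-based pH 7.4 buffer with BSA and bacitracin. Bound radioactivity after filtration and ice-cold rinse counted by gamma or liquid scintillation; 1 μM PYY defines nonspecific binding.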

[6] = biological target: T2, Rat NPY5 receptor; test: Rat NPY5 receptor binding assay ([125I]PYY, membrane protein); details: [125I]PYY, read-out: rNPY5 IC50
Outline: as §2

Sequence of human Y4/PP1 receptor (P50391 whole entry): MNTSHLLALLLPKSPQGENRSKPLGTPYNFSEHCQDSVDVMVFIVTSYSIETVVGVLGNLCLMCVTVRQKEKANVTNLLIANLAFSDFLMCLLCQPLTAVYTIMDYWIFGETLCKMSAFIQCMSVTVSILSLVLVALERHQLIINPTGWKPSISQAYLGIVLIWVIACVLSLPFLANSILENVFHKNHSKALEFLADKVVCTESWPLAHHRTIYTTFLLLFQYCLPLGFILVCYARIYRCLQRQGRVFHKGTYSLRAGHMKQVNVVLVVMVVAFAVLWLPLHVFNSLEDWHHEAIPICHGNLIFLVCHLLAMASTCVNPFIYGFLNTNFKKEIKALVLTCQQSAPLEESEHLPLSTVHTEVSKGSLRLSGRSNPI

SMILES | pIC50 [1] | pIC50 [2] | activity at 10 µM [3] [%] | pIC50 [4] | melting point [°C] | pIC50 [5] | pIC50 [6] | rNPY5 % FSAC (10 μM) [3] [%]
O=C(CN1CCC(n2c(=O)[nH]c3ccccc32)CC1)Nc1ccc(C2CCCCC2)cc1 [Compound 251, N-(4-Cyclohexyl-phenyl)-2-[4-(2-oxo-2,3-dihydrobenzoimidazol-1-yl)-piperidin-1-yl]-acetamide] | < 5.30 | < 5.30 | 92 | < 5.30 | 130 to 132 | 8.40 | – | –
CCCCc1ccc(NC(=O)CN2CCC(n3c(=O)[nH]c4ccccc43)CC2)cc1 [Compound 254, N-(4-Butyl-phenyl)-2-[4-(2-oxo-2,3-dihydro-benzoimidazol-1-yl)-piperidin-1-yl]-acetamide] | < 5.30 | < 5.30 | 103 | < 5.30 | 130 to 131 | 7.37 | – | –
CCCCCc1ccc(NC(=O)CN2CCC(n3c(=O)[nH]c4ccccc43)CC2)cc1 [Compound 255, 2-[4-(2-Oxo-2,3-dihydro-benzoimidazol-1-yl)-piperidin-1-yl]-N-(4-pentyl-phenyl)-acetamide] | < 5.30 | < 5.30 | 95 | < 5.30 | 127 to 128 | 7.13 | – | –
CCCCCCc1ccc(NC(=O)CN2CCC(n3c(=O)[nH]c4ccccc43)CC2)cc1 [Compound 256, N-(4-Hexyl-phenyl)-2-[4-(2-oxo-2,3-dihydro-benzoimidazol-1-yl)-piperidin-1-yl]-acetamide] | < 5.30 | < 5.30 | 92 | < 5.30 | 128 to 129 | 6.92 | – | –
CC(C)c1ccc(NC(=O)CN2CCC(n3c(=O)[nH]c4ccccc43)CC2)cc1 [Compound 257, N-(4-Isopropyl-phenyl)-2-[4-(2-oxo-2,3-dihydro-benzoimidazol-1-yl)-piperidin-1-yl]-acetamide] | < 5.30 | < 5.30 | 88 | < 5.30 | 133 to 134 | 6.96 | – | –
Cl.O=C(CN1CCC(n2c(=O)[nH]c3ccccc32)CC1)Nc1ccc(C(=O)c2ccccc2)cc1 [Compound 263, N-(4-Benzoyl-phenyl)-2-[4-(2-oxo-2,3-dihydro-benzoimidazol-1-yl)-piperidin-1-yl]-acetamide; hydrochloride] | < 5.30 | – | 97 | < 5.30 | 215 to 216 | 8.40 | 8.52 | –
Cl.O=C(CN1CCC(n2c(=O)[nH]c3ccccc32)CC1)NCCc1ccccc1 [Compound 280, 2-[4-(2-Oxo-2,3-dihydro-benzoimidazol-1-yl)-piperidin-1-yl]-N-phenethyl-acetamide; hydrochloride] | < 5.30 | < 5.30 | 90 | < 5.30 | 181 to 182 | – | – | –
Cl.O=C(CN1CCC(n2c(=O)[nH]c3ccccc32)CC1)Nc1ccc2c(c1)-c1ccccc1C2=O [Compound 311, 2-[4-(2-Oxo-2,3-dihydro-benzoimidazol-1-yl)-piperidin-1-yl]-N-(9-oxo-9H-fluoren-3-yl)-acetamide; hydrochloride] | – | – | 95 | – | 258 | 9.33 | 9.47 | –
Cl.O=C(CN1CCC(n2c(=O)[nH]c3ccccc32)CC1)Nc1ccc(-c2ccc(F)cc2)cc1 [Compound 327, N-(4′-Fluoro-biphenyl-4-yl)-2-[4-(2-oxo-2,3-dihydro-benzoimidazol-1-yl)-piperidin-1-yl]-acetamide; hydrochloride] | – | – | – | – | 289 | 6.96 | 7.22 | 101
Cc1ccc(NC(=O)CN2CCC(n3c(=O)[nH]c4ccccc43)CC2)cc1 [Compound 359, 2-[4-(2-Oxo-2,3-dihydro-benzoimidazol-1-yl)-piperidin-1-yl]-N-p-tolyl-acetamide, reference compound] | < 5.30 | < 5.30 | 104 | < 5.30 | – | 5.89 | 5.92 | –
